# Measurements published in patent US6440980B1, “Synergistic inhibition of viral replication by long-chain hydrocarbons and nucleoside analogs” (Avanir Pharmaceuticals, priority 1996, dated 2002).
# Read-outs that look alike come from different tables or passages of the source.
# How the values were obtained:
# Fetal Foreskin Cells = assay: Cell viability by trypan blue exclusion, fetal foreskin cells; type: cell-based, human; details: for Fetal Foreskin Cells No. Viable: 9 mM n-docosanol in 1.4 mM surfactant (4:1 w:w), trypan blue exclusion; for Fetal Foreskin Cells % Control: 9 mM n-docosanol in 1.4 mM surfactant, control = media only
# Method: Typical data are presented in Table 3, showing that the total number of viable Vero cells and foreskin fibroblasts was unchanged after 24 hr to 72 hr incubation with the aliphatic alcohol suspension.
# B cell hybridoma (MBI-9) = assay: 3H-thymidine incorporation into DNA of B cell hybridoma; type: cell-based, murine; details: Mus musculus, 48 hr incubation, read-out: IC50 estimated by extrapolation
# [1] = tested on: human foreskin fibroblasts; assay: Cell proliferation (cytostasis), sulforhodamine staining; type: cell-based; details: 1,000 cells/well, 96-hours incubation
# Method: The effects of n-docosanol and n-docosane suspensions on cell proliferation (cytostasis) were quantitated using the sulforhodamine staining assay on cultures of human foreskin fibroblasts incubated in 96-well plates.
# Foreskin fibroblasts were plated with or without aliphatic alcohol suspensions or control surfactant suspensions at 1,000 cells/well (FIG. 6A and FIG. 7) or at 30,000 cells/well (FIG. 6B) in 96 well plates. After incubation for 72 hr or 96 hr at 37° C., cells were precipitated with trichloroacetic acid, stained with sulforhodamine and quantitated by measuring the OD540 in a microtiter plate reader.
# all cell lines tested = assay: Cytotoxicity in mammalian cell cultures; details: read-out: IC50 (cellular toxicity by chain length)
# Excerpt: Three assays were used to quantitate the effects of aliphatic alcohols on cell survival and proliferation: 1) counting cells with a hemocytometer and determining the number of cells that exclude trypan blue; 2) measuring the incorporation of ^3H-thymidine into cellular DNA by adding ^3H-thymidine (from New England Nuclear) to the culture medium, lysing the cells with water and harvesting the DNA onto filter paper; and 3) measuring total cellular protein using a sulforhodamine assay adapted for use in 96-well microtiter plates (Skehan et al., J. Natl. Cancer Inst. […] All of these methods are well known cell viability and cytotoxicity assays.
# HSV-2 [2] = assay: Topical treatment of HSV-2 in guinea pig model, number of vesicles (Example 9); type: in vivo, hairless guinea pigs; details: mean; for Number of Vesicles Day 2: 48 hr post-inoculation; for Number of Vesicles Day 3: 72 hr post-inoculation; for Number of Vesicles Day 4: 96 hr post-inoculation
# HSV-2 [3] = assay: Cutaneous HSV-2 model in hairless guinea pigs, combination cream (Example 15); type: in vivo
# HSV-1 = HSV-1 PFU production in Vero cell cultures; type: cell-based, HSV-1 (MacIntyre strain)
# [4] = tested on: Varicella Zoster Virus (VZV); assay: VZV infectious center assay in MRC-5 cells; type: cell-based, human varicella zoster virus (Ellen strain); details: for IC per Culture × 10^−4: no ACV, medium only 35
# Cytomegalovirus (CMV) = assay: CMV infectious center assay in MRC-5 cells; type: cell-based, human cytomegalovirus (Towne strain)
# vaccinia virus = assay: microbe, parasite or virus in culture; type: cell-based, vaccinia virus (WR strain); details: cultures that lacked PFA; 15 mM n-docosanol
# Vero cells = details: African green monkey, 9 mM
# [5] = male, hairless, guinea pig, in vivo, 2 day
# [6] = tested on: Early viral protein synthesis; details: Katz et al. 1991; cited from earlier work
# HSV-2 [7] = assay: Inhibition of HSV-2 plaque formation in Vero cells
# [8] = Inflammation or toxicity at treated skin sites (Example 15); details: 96 hours, alone or in combination
# [9] = Human betaherpesvirus 5, MRC5, read-out: % Inhibition of infected cells
# [10] = Human alphaherpesvirus 2, Vero, read-out: Percent Inhibition of Plaque Formation
smiles,measurement,setting,value
CCCCCCCCCCCCCCCCCCCCCCO [n-docosanol],Fetal Foreskin Cells No. Viable,Fetal Foreskin Cells; 24 hr,2.41 × 10^5
same,Fetal Foreskin Cells No. Viable,Fetal Foreskin Cells; 48 hr,2.78 × 10^5
same,Fetal Foreskin Cells No. Viable,Fetal Foreskin Cells; 72 hr,2.72 × 10^5
same,Fetal Foreskin Cells % Control,Fetal Foreskin Cells; 24 hr,131%
same,Fetal Foreskin Cells % Control,Fetal Foreskin Cells; 48 hr,118%
same,Fetal Foreskin Cells % Control,Fetal Foreskin Cells; 72 hr,118%
same,IC50,B cell hybridoma (MBI-9),~20 mM
same,n-docosanol concentration that inhibited proliferation of cells,[1],greater than 3 mM
same,IC50,all cell lines tested,> 15 mM
same,Number of Vesicles Day 2,HSV-2 [2]; 10% w/w cream topically 3X/day from 24 hr post-inoculation,40
same,Number of Vesicles Day 3,HSV-2 [2]; 10% w/w cream topically 3X/day,12
same,Number of Vesicles Day 4,HSV-2 [2]; 10% w/w cream topically 3X/day,3
same,Number of Vesicles Day 2,HSV-2 [2]; 10% w/w cream topically 5X/day,43
same,Number of Vesicles Day 3,HSV-2 [2]; 10% w/w cream topically 5X/day,5
same,Number of Vesicles Day 4,HSV-2 [2]; 10% w/w cream topically 5X/day,3
same,reduction of mean vesicle numbers,"HSV-2 [3]; 96 hours post-HSV-2-inoculation, cream two times daily, untreated mean 27 vesicles",63%
same,mean AUC (mean number of vesicles times hours vesicles were observed),"HSV-2 [3]; cream two times daily, untreated 698",464 vesicle hours
same,inhibition of AUC,HSV-2 [3]; vs untreated AUC 698 vesicle hours,34%
same,fewer HSV-1 PFU than untreated cultures,"HSV-1; 15 mM n-docosanol alone, three days post-infection",about 10 fold
same,inhibition at 3300 µM,"HSV-1; Human alphaherpesvirus 1, Vero, read-out: inhibition of PFU production",55%
same,EC50,"[4]; Human alphaherpesvirus 3, MRC5, MRC-5 cells, read-out: n-docosanol EC50 for inhibition of VZV replication",~10 mM
same,inhibition at 3300 µM,"[4]; Human alphaherpesvirus 3, MRC5, VZV, n-Docosanol 3.3 mM, read-out: % Inhibition of infected cells",40%
same,inhibition at 10000 µM,"[4]; Human alphaherpesvirus 3, MRC5, VZV, n-Docosanol 10 mM, read-out: % Inhibition of infected cells",57%
same,inhibition at 30000 µM,"[4]; Human alphaherpesvirus 3, MRC5, VZV, n-Docosanol 30 mM, read-out: % Inhibition of infected cells",80%
same,IC per Culture × 10^−4,"[4]; VZV, n-Docosanol 3.3 mM",21 × 10^−4
same,IC per Culture × 10^−4,"[4]; VZV, n-Docosanol 10 mM",15 × 10^−4
same,IC per Culture × 10^−4,"[4]; VZV, n-Docosanol 30 mM",7 × 10^−4
same,inhibition at 3300 µM,Cytomegalovirus (CMV); [9],20%
same,inhibition at 10000 µM,Cytomegalovirus (CMV); [9],60%
same,inhibition at 30000 µM,Cytomegalovirus (CMV); [9],85%
same,EC50,"Cytomegalovirus (CMV); Human betaherpesvirus 5, MRC5, read-out: n-docosanol EC50 for inhibition of CMV replication, MRC-5 cells",~10 mM
same,inhibition of vaccinia virus replication (in words),vaccinia virus,does not inhibit replication of vaccinia virus
same,Vero Cells % Control,Vero cells; 24 h,101%
same,Vero Cells No. Viable,Vero cells; 24 h,7.48 × 10^5
same,Vero Cells % Control,Vero cells; 48 h,137%
same,Vero Cells No. Viable,Vero cells; 48 h,8.69 × 10^5
same,Vero Cells % Control,Vero cells; 72 h,120%
same,Vero Cells No. Viable,Vero cells; 72 h,8.61 × 10^5
same,Irritation Score Day 2,[5],0
same,inhibition of early viral protein synthesis,[6],more than 80%
same,fewer plaques than untreated or PLURONIC F-68-treated controls,"HSV-2 [7]; 3 mM n-docosanol, without ACV",40%
same,EC50,"HSV-2 [7]; Human alphaherpesvirus 2, Vero, read-out: 50% Inhibition Concentration (mM)",8.6 mM
same,EC50,"HSV-2 [7]; Human alphaherpesvirus 2, Vero, read-out: EC50 of plaque formation inhibition, octoxynol (TRITON X-100) suspension",~4.5 mM
same,inhibition at 1000 µM,HSV-2 [7]; [10],14%
same,inhibition at 2000 µM,HSV-2 [7]; [10],40%
same,inhibition at 4000 µM,HSV-2 [7]; [10],36%
same,inhibition at 8000 µM,HSV-2 [7]; [10],44%
same,inhibition at 15000 µM,HSV-2 [7]; [10],66%
same,EC50,"HSV-2 [7]; Human alphaherpesvirus 2, Vero, read-out: amount of n-docosanol required for 50% inhibition of plaque production, after increasing the ratio of surfactant to n-docosanol",3 mM
same,EC50,"HSV-2 [7]; Human alphaherpesvirus 2, Vero, read-out: amount of n-docosanol required for 50% inhibition of plaque production, before increasing the ratio of surfactant to n-docosanol",15 mM
same,EC50,"HSV-2 [7]; Human alphaherpesvirus 2, Vero, read-out: effective concentration required to inhibit plaque formation by 50% (EC50), surfactant suspension, Example 5",9 mM
same,EC50,"HSV-2 [7]; Human alphaherpesvirus 2, Vero, read-out: n-docosanol EC50, HSV-2 plaque formation, in conjunction with ACV in the range of 0.2-10 μM",2 to 3 mM
same,EC50,"HSV-2 [7]; Human alphaherpesvirus 2, Vero, read-out: n-docosanol EC50, HSV-2 plaque formation, used alone",2 to 3 mM
same,n-docosanol concentrations inhibiting plaque formation relative to octoxynol control,HSV-2 [7]; octoxynol (TRITON X-100) suspension,greater than or equal to 2 mM
same,induced inflammation or toxicity,[8],not detected
